From patent US8546404B2, “Compounds that are ERK inhibitors” (Merck Sharp & Dohme, priority 2005, dated 2013)
Several values for one entry are separate records, joined by “and”; a condition that tells them apart may be missing. Equal values may be shown once.

molecular target: fully phosphorylated, active Mouse ERK2 protein (Mus musculus (Mouse), UniProt P63085); experiment: Active ERK2 Assay (IMAP format); assay type: biochemical; settings: AERK2 IC50
Method: Activated ERK2 activity was also determined in the IMAP assay format using the procedure outlined above. […] Reactions proceeded for 30 minutes before termination by addition of 60 μl IMAP detection beads in binding buffer. Plates were read as above after 30 minute binding equilibration.

Chain of fully phosphorylated, active Mouse ERK2 protein (P63085 whole entry): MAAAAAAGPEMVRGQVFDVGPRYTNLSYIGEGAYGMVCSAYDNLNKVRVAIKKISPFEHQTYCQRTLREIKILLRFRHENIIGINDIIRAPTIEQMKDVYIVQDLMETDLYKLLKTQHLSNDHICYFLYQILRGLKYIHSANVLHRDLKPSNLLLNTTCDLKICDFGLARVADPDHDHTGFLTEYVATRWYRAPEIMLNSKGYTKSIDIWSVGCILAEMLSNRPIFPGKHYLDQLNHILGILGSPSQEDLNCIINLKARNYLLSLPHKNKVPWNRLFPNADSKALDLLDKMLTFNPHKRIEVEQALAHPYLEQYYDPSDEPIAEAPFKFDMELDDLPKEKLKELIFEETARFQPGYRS

SMILES | IC50 [nM]
O=C(Nc1ccc2[nH]nc(-c3ccncc3)c2c1)[C@@H]1CCN(CC(=O)N2CCN(c3ccc(-c4ncccn4)cc3)CC2)C1 [Example 6] | 0.8

same assay, conditions: read-out: AERK2 IC50

SMILES | IC50
C[C@@H]1CN(c2ccc(-c3ncccn3)cn2)CCN1C(=O)CN1CCC(C(=O)Nc2ccc3[nH]nc(-c4ccc(F)cc4)c3c2)C1 (stereo partly shown) [Example 100] | 0.16 to 18 nM and 0.16 to 1.5 nM
O=C(CN1CCC(CN2CCOCC2)(C(=O)Nc2ccc3[nH]nc(-c4ccncc4)c3c2)C1)N1CCN(c2nccs2)CC1 (stereo not shown) [Example 286] | 0.16 to 18 nM
O=C(Nc1ccc2[nH]nc(-c3c[nH]cn3)c2c1)[C@@H]1CCN(CC(=O)N2CCN(c3ccc(-c4ncccn4)cc3)CC2)C1 (stereo in doubt) [Example 61, 1-{2-Oxo-2-[4-(4-pyrimidin-2-yl-phenyl)-piperazin-1-yl]-ethyl}-pyrrolidine-3-carboxylic acid [3-(1H-imidazol-4-yl)-1H-indazol-5-yl]-amide] | 0.16 to 18 nM
O=C(Nc1ccc2[nH]nc(-c3ccc(F)cc3)c2c1)[C@@H]1CCN(CC(=O)N2C[C@@H]3C[C@H]2CN3c2ccc(-c3ncccn3)cc2)C1 [Example 184] | 0.16 to 18 nM and 0.16 to 1.5 nM
CSC1(C(=O)Nc2ccc3[nH]nc(-c4ccc(F)cc4)c3c2)CCN(CC(=O)N2CCN(c3ccc(-c4ncccn4)cc3)CC2)C1 (stereo not shown) [Example 338] | 0.16 to 18 nM
CCCC1(C(=O)Nc2ccc3[nH]nc(-c4ccncc4)c3c2)CCN(CC(=O)N2CCN(c3ccc(-c4ncccn4)cc3)CC2)C1 (stereo not shown) [Example 290] | 0.16 to 18 nM
COCC1(C(=O)Nc2ccc3[nH]nc(-c4ccncc4)c3c2)CCN(CC(=O)N2CCN(c3ccc(-c4ncccn4)cn3)C[C@H]2C)C1 (stereo partly shown) [Example 304] | 0.16 to 18 nM
C=Cc1cnc(N2C[C@@H]3C[C@H]2CN3C(=O)CN2CC[C@@H](C(=O)Nc3ccc4[nH]nc(-c5ccncc5)c4c3)C2)nc1 [Example 250] | 0.16 to 18 nM
CS(=O)(=O)[C@@]1(C(=O)Nc2ccc3[nH]nc(-c4ccnc(C5CC5)c4)c3c2)CCN(CC(=O)N2CC=C(c3ccc(-c4ncccn4)cc3)CC2)C1 [Example 634] | 0.16 to 18 nM
CC(=O)N/N=C(\C)C1(C(=O)Nc2ccc3[nH]nc(-c4ccc(F)cc4)c3c2)CCN(CC(=O)N2CCN(c3ccc(-c4ncccn4)cn3)C[C@H]2C)C1 (stereo in doubt) [Example 358, 3-[1-(Acetyl-hydrazono)-ethyl]-1-{2-[2-methyl-4-(5-pyrimidin-2-yl-pyridin-2-yl)-piperazin-1-yl]-2-oxo-ethyl}-pyrrolidine-3-carboxylic acid [3-(4-fluoro-phenyl)-1H-indazol-5-yl]-amide] | 0.16 to 18 nM
CCCCNC(=O)c1n[nH]c2ccc(NC(=O)[C@@H]3CCN(CC(=O)N4CCN(c5ccc(-c6ncccn6)cc5)CC4)C3)cc12 [Example 86] | 0.16 to 18 nM
CS[C@@]1(C(=O)Nc2ccc3[nH]nc(-c4ccnc(C5CC5)c4)c3c2)CCN(CC(=O)N2CC=C(c3ccc(-c4ncccn4)cc3)CC2)C1 [Example 639] | 0.16 to 18 nM
O=C(CN1CCC(CF)(C(=O)Nc2ccc3[nH]nc(-c4ccncc4)c3c2)C1)N1CCN(c2nccs2)CC1 (stereo not shown) [Example 282] | 0.16 to 18 nM
O=C(CN1CCC(CF)(C(=O)Nc2ccc3[nH]nc(-c4ccncc4)c3c2)C1)N1C[C@@H]2C[C@H]1CN2c1ccc(-c2ncccn2)cc1 (stereo partly shown) [Example 269] | 0.16 to 18 nM
COCC1(C(=O)Nc2ccc3[nH]nc(-c4ccncc4)c3c2)CCN(CC(=O)N2CCN(c3ccc(-c4ncccn4)cc3)CC2)C1 (stereo not shown) [Example 264] | 0.16 to 18 nM
N#Cc1cccc(-c2n[nH]c3ccc(NC(=O)[C@@H]4CCN(CC(=O)N5CCN(c6ccc(-c7ncccn7)cc6)CC5)C4)cc23)c1 [Example 2, 1-{2-Oxo-2-[4-(4-pyrimidin-2-yl-phenyl)-piperazin-1-yl]-ethyl}-pyrrolidine-3-carboxylic acid[3-(3-cyano-phenyl)-1H-indazol-5-yl]-amide] | 0.16 to 18 nM
O=C(Nc1ccc2[nH]nc(-c3ccncc3)c2c1)[C@@H]1CCN(CC(=O)N2C[C@@H]3C[C@H]2CN3c2ccc(-c3ncc(F)cn3)cc2)C1 [Example 183] | 0.16 to 18 nM and 0.16 to 1.5 nM and 0.16 nM
CNC(=O)c1n[nH]c2ccc(NC(=O)[C@@H]3CCN(CC(=O)N4CCC(c5ccc(-c6ncccn6)cc5)CC4)C3)cc12 [Example 176] | 0.16 to 18 nM
C=CCC1(C(=O)Nc2ccc3[nH]nc(-c4ccncc4)c3c2)CCN(CC(=O)N2CCN(c3ccc(-c4ncc(F)cn4)cc3)CC2)C1 (stereo not shown) [Example 294] | 0.16 to 18 nM
CNC(=O)c1n[nH]c2ccc(NC(=O)[C@@H]3CCN(CC(=O)N4C[C@@H]5C[C@H]4CN5c4ccc(-c5ncccn5)cc4)C3)cc12 [Example 152] | 0.16 to 18 nM
COCC1(C(=O)Nc2ccc3[nH]nc(-c4ccncc4)c3c2)CCN(CC(=O)N2CCN(c3ccc(-c4ncc(F)cn4)cc3)CC2)C1 (stereo not shown) [Example 302] | 0.16 to 18 nM
CO[C@@]1(C(=O)Nc2ccc3[nH]nc(-c4ccc(F)cc4)c3c2)CCN(CC(=O)N2CC=C(c3ccc(-c4ncccn4)cc3F)CC2)C1 [Example 606] | 0.16 to 18 nM
CCOC1(C(=O)Nc2ccc3[nH]nc(-c4ccnc(C)c4)c3c2)CCN(CC(=O)N2CCN(c3ccc(-c4ncccn4)cc3)CC2)C1 (stereo not shown) [Example 343] | 0.16 to 18 nM
CS(=O)(=O)[C@@]1(C(=O)Nc2ccc3[nH]nc(-c4ccnc(C5CC5)c4)c3c2)CCN(CC(=O)N2CCC(c3ccc(-c4ncccn4)cc3)CC2)C1 [Example 635] | 0.16 to 18 nM
O=C(CN1CCC(CF)(C(=O)Nc2ccc3[nH]nc(-c4ccc(F)cc4)c3c2)C1)N1C[C@@H]2C[C@H]1CN2c1ccc(-c2ncccn2)cc1 (stereo partly shown) [Example 251] | 0.16 to 18 nM
CCNc1nnc(-c2ccc(C3CCN(C(=O)CN4CC[C@@](OC)(C(=O)Nc5ccc6[nH]nc(-c7ccc(F)cc7)c6c5)C4)CC3)cc2)o1 (stereo in doubt) [Example 623, 1-(2-{4-[4-(5-Ethylamino-[1,3,4]oxadiazol-2-yl)-phenyl]-piperidin-1-yl}-2-oxo-ethyl)-3-methoxy-pyrrolidine-3-carboxylic acid [3-(4-fluoro-phenyl)-1H-indazol-5-yl]-amide] | 0.16 to 18 nM
C=CCC1(C(=O)Nc2ccc3[nH]nc(-c4ccncc4)c3c2)CCN(CC(=O)N2C[C@@H]3C[C@H]2CN3c2ccc(-c3ncc(F)cn3)cc2)C1 (stereo partly shown) [Example 271] | 0.16 to 18 nM

Results, then the compound that gave them:

IC50 | SMILES
0.16 to 18 nM | CO[C@@]1(C(=O)Nc2ccc3[nH]nc(-c4ccnc(C(F)F)c4)c3c2)CCN(CC(=O)N2CCC(c3ccc(-c4ncccn4)cc3)CC2)C1 [Example 786]
0.16 to 18 nM | CO[C@@]1(C(=O)Nc2ccc3[nH]nc(-c4cc[n+]([O-])c(C)c4)c3c2)CCN(CC(=O)N2CC=C(c3ccc(-c4ncccn4)cc3)CC2)C1 [Example 666]
0.16 to 18 nM | CO[C@@]1(C(=O)Nc2ccc3[nH]nc(-c4cn[nH]c4)c3c2)CCN(CC(=O)N2CC=C(c3ccc(-c4ncccn4)cc3)CC2)C1 [Example 796]
0.16 to 18 nM | CO[C@@]1(C(=O)Nc2ccc3[nH]nc(-c4ccc5c(c4)OCO5)c3c2)CCN(CC(=O)N2CCN(c3ccc(-c4ncccn4)cn3)C[C@H]2C)C1 [Example 799]
0.16 to 18 nM | CO[C@@]1(C(=O)Nc2ccc3[nH]nc(-c4ccc(F)c(NCCO)c4)c3c2)CCN(CC(=O)N2CC=C(c3ccc(-c4ncccn4)cc3)CC2)C1 [Example 757]
0.16 to 1.5 nM | CO[C@@]1(C(=O)Nc2ccc3[nH]nc(-c4ccc(F)c(CO)c4)c3c2)CCN(CC(=O)N2CC=C(c3ccc(-c4ncccn4)cc3)CC2)C1 [Example 787]
0.16 to 18 nM | CS[C@@]1(C(=O)Nc2ccc3[nH]nc(-c4ccnc(C5CC5)c4)c3c2)CCN(CC(=O)N2CC=C(c3ccc(-c4ncccn4)cc3F)CC2)C1 [Example 651]
0.16 to 18 nM | COc1cc(C2CCN(C(=O)CN3CC[C@@](OC)(C(=O)Nc4ccc5[nH]nc(-c6ccnc(C7CC7)c6)c5c4)C3)CC2)ccc1-c1ncccn1 [Example 672]
0.16 to 18 nM | CS[C@@]1(C(=O)Nc2ccc3[nH]nc(-c4ccc(F)cc4)c3c2)CCN(CC(=O)N2CCN(c3ccc(-c4ncccn4)cn3)C[C@H]2C)C1 [Example 641]
0.16 to 18 nM | CO[C@@]1(C(=O)Nc2ccc3[nH]nc(-c4ccc(F)cc4)c3c2)CCN(CC(=O)N2CC=C(c3ccc(-c4ncccn4)s3)CC2)C1 [Example 737]
0.16 to 18 nM | CO[C@@]1(C(=O)Nc2ccc3[nH]nc(-c4cc[n+]([O-])c(C5CC5)c4)c3c2)CCN(CC(=O)N2CCC(c3ccc(-c4ncccn4)cc3)CC2)C1 [Example 669]
0.16 to 18 nM | COCCOc1ccc(-c2n[nH]c3ccc(NC(=O)[C@]4(OC)CCN(CC(=O)N5CC=C(c6ncc(-c7ncccn7)cc6F)CC5)C4)cc23)cc1 [Example 738]
0.16 to 18 nM | CO[C@@]1(C(=O)Nc2ccc3[nH]nc(-c4ccc(NCCO)cc4)c3c2)CCN(CC(=O)N2CC=C(c3ccc(-c4ncccn4)cc3)CC2)C1 [Example 758]
0.16 to 18 nM | CO[C@@]1(C(=O)Nc2ccc3[nH]nc(-c4ccc(F)cc4)c3c2)CCN(CC(=O)N2CC=C(c3ccc(-c4ncc(N)cn4)cc3)CC2)C1 [Example 823]
0.16 to 18 nM | CO[C@@]1(C(=O)Nc2ccc3[nH]nc(-c4ccnc(C5CC5)c4)c3c2)CCN(CC(=O)N2CCC(C)(c3ccc(-c4ncccn4)cc3)CC2)C1 [Example 680]
0.16 to 18 nM | COCCOc1ccc(-c2n[nH]c3ccc(NC(=O)[C@]4(OC)CCN(CC(=O)N5CC=C(c6ccc(-c7ncccn7)cc6F)CC5)C4)cc23)cc1 [Example 767]
0.16 to 18 nM | COc1cc(C2=CCN(C(=O)CN3CC[C@@](OC)(C(=O)Nc4ccc5[nH]nc(-c6ccnc(C7CC7)c6)c5c4)C3)CC2)ccc1-c1ncccn1 [Example 673]
0.16 to 18 nM | CO[C@@]1(C(=O)Nc2ccc3[nH]nc(-c4ccnc(C)c4)c3c2)CCN(CC(=O)N2CCC(c3ccc(-c4ncccn4)cc3)CC2)C1 [Example 789]
0.16 to 18 nM | CO[C@@]1(C(=O)Nc2ccc3[nH]nc(-c4ccc(F)cc4)c3c2)CCN(CC(=O)N2CC=C(c3ccc(-c4ncc(F)cn4)c(F)c3)CC2)C1 [Example 661]
0.16 to 18 nM | CO[C@@]1(C(=O)Nc2ccc3[nH]nc(-c4ccnc(C(F)F)c4)c3c2)CCN(CC(=O)N2CC=C(c3ccc(-c4ncccn4)cc3)CC2)C1 [Example 785]
0.16 to 18 nM | CO[C@@]1(C(=O)Nc2ccc3[nH]nc(-c4ccc(F)c(OCCO)c4)c3c2)CCN(CC(=O)N2CC=C(c3ccc(-c4ncccn4)cc3)CC2)C1 [Example 755]
